Laboratory results: PubChem BioAssay AID248 (DTP/NCI, 2004)
Values joined by “and” are separate entries in the source; they are usually repeats but may differ in a detail not shown here. Equal values may be shown once. Inconclusive results and toxic doses are left out. No stated cut-off is given here; in the data, active means T/C of 150% or more; inactive means T/C below 125%.

Tested on: L1210 leukemia ip in BDF1 mice, survival T/C
Assay: NCI In Vivo Anticancer Drug Screen. Data for tumor model L1210 Leukemia (intraperitoneal) in B6D2F1 (BDF1) mice
Conditions: endpoint: mean survival time, higher = longer survival
How it was run: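 In this screen, tumor-bearing mice given compound are compared to those given vehicle, and their survival values are reported as a treated-to-control quotient.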

[1] = dose: 50.0 mg/kg/injection, schedule: Q01DX001 (ip), vehicle: saline
[2] = dose: 100.0 mg/kg/injection, schedule: Q01DX009 (ip), vehicle: Klucel (hydroxypropylcellulose) (HPC)
[3] = dose: 100.0 mg/kg/injection, schedule: Q04DX003 (ip), vehicle: Klucel (hydroxypropylcellulose) (HPC)
[4] = dose: 200.0 mg/kg/injection, schedule: Q01DX009 (ip), vehicle: Klucel (hydroxypropylcellulose) (HPC)
[5] = dose: 200.0 mg/kg/injection, schedule: Q04DX003 (ip), vehicle: Klucel (hydroxypropylcellulose) (HPC)
[6] = dose: 400.0 mg/kg/injection, schedule: Q04DX003 (ip), vehicle: Klucel (hydroxypropylcellulose) (HPC)
[7] = dose: 100.0 mg/kg/injection, schedule: Q01DX001 (ip), vehicle: carboxymethylcellulose (CMC)
[8] = dose: 200.0 mg/kg/injection, schedule: Q01DX001 (ip), vehicle: carboxymethylcellulose (CMC)
[9] = dose: 400.0 mg/kg/injection, schedule: Q01DX001 (ip), vehicle: carboxymethylcellulose (CMC)
[10] = dose: 100.0 mg/kg/injection, schedule: Q01DX001 (ip), vehicle: saline
[11] = dose: 200.0 mg/kg/injection, schedule: Q01DX001 (ip), vehicle: saline
[12] = dose: 400.0 mg/kg/injection, schedule: Q01DX009 (ip), vehicle: Klucel (hydroxypropylcellulose) (HPC)
[13] = dose: 400.0 mg/kg/injection, schedule: Q01DX001 (ip), vehicle: saline
[14] = dose: 25.0 mg/kg/injection, schedule: Q04DX003 (ip), vehicle: saline with Tween-80
[15] = dose: 50.0 mg/kg/injection, schedule: Q04DX003 (ip), vehicle: saline with Tween-80

Measured: T/C

CN=[N+]([O-])C1(OC(C)=O)CCCC1
inactive: dose: 6.25 mg/kg/injection, schedule: Q01DX001 (ip), vehicle: saline 117 % of control | dose: 12.5 mg/kg/injection, schedule: Q01DX001 (ip), vehicle: saline 110 % of control | dose: 25.0 mg/kg/injection, schedule: Q01DX001 (ip), vehicle: saline 117 % of control | [1] 113 % of control

CCCCOP(=O)(CCl)OCCCC
inactive: [2] 98 % of control | [3] 97 % of control | [4] 103 % of control | [5] 97 % of control | [6] 95 % of control

Brc1n[nH]c(Br)n1
inactive: dose: 100.0 mg/kg/injection, schedule: Q01DX009 (ip), vehicle: saline with Tween-80 93 % of control | dose: 200.0 mg/kg/injection, schedule: Q01DX009 (ip), vehicle: saline with Tween-80 93 % of control | dose: 400.0 mg/kg/injection, schedule: Q01DX009 (ip), vehicle: saline with Tween-80 91 % of control

O=C(NCCCl)NC1CCS(=O)(=O)C1 (stereo unspecified)
inactive: dose: 100.0 mg/kg/injection, schedule: Q01DX001 (ip), vehicle: other 98 % of control | dose: 200.0 mg/kg/injection, schedule: Q01DX001 (ip), vehicle: other 98 % of control | dose: 400.0 mg/kg/injection, schedule: Q01DX001 (ip), vehicle: other 98 % of control

O=C(OCC(O)C(O)C(O)C(O)COC(=O)c1ccccc1)c1ccccc1 (stereo unspecified)
inactive: [7] 98 % of control | [8] 95 % of control | [9] 95 % of control

O=C(/C=C/c1ccccc1)c1ccc(O)cc1O
inactive: [1] 97 % of control | [10] 95 % of control | [11] 97 % of control

O=S1(=O)CC(c2ccc(F)cc2)Nc2ccccc21 (stereo unspecified)
inactive: [3] 102 % of control | [5] 102 % of control | [6] 97 % of control

CC(=O)Nc1ccc(/C=N/NC(=O)c2cccc3ccccc23)cc1
inactive: [10] 86 % of control

COC(=O)/C=C/N1C(=O)c2ccccc2C1=O
inactive: [2] 96 % of control | [3] 102 % of control | [4] 98 % of control | [5] 92 % of control | [12] 98 % of control | [6] 96 % of control

O=C1CCCCC1CO (stereo unspecified)
inactive: [2] 96 % of control | dose: 100.0 mg/kg/injection, schedule: Q04DX002 (ip), vehicle: Klucel (hydroxypropylcellulose) (HPC) 96 % of control | [4] 100 % of control | dose: 200.0 mg/kg/injection, schedule: Q04DX002 (ip), vehicle: Klucel (hydroxypropylcellulose) (HPC) 100 % of control | [12] 89 % of control | dose: 400.0 mg/kg/injection, schedule: Q04DX002 (ip), vehicle: Klucel (hydroxypropylcellulose) (HPC) 86 % of control

Cc1n(CC(C)C)c2c([n+]1C)C(=O)c1ccccc1C2=O
inactive: dose: 0.03 mg/kg/injection, schedule: Q01DX001 (ip), vehicle: saline 98 % of control | dose: 0.06 mg/kg/injection, schedule: Q01DX001 (ip), vehicle: saline 109 % of control | dose: 0.12 mg/kg/injection, schedule: Q01DX001 (ip), vehicle: saline 106 % of control | dose: 0.24 mg/kg/injection, schedule: Q01DX001 (ip), vehicle: saline 101 % of control | dose: 0.25 mg/kg/injection, schedule: Q01DX015 (ip), vehicle: saline 97 % of control | dose: 0.5 mg/kg/injection, schedule: Q01DX015 (ip), vehicle: saline 95 % of control | dose: 1.0 mg/kg/injection, schedule: Q01DX015 (ip), vehicle: saline 106 % of control and 108 % of control | dose: 2.0 mg/kg/injection, schedule: Q01DX015 (ip), vehicle: saline 108 % of control | dose: 2.0 mg/kg/injection, schedule: Q04DX003 (ip), vehicle: saline 91 % of control

Cc1cc(Cl)cc(C(=O)Cl)c1O
inactive: dose: 100.0 mg/kg/injection, schedule: Q04DX002 (ip), vehicle: saline with Tween-80 111 % of control | dose: 200.0 mg/kg/injection, schedule: Q04DX002 (ip), vehicle: saline with Tween-80 107 % of control | dose: 400.0 mg/kg/injection, schedule: Q04DX002 (ip), vehicle: saline with Tween-80 103 % of control

NC(N1CC1)(C(F)(F)F)C(F)(F)F
inactive: dose: 20.0 mg/kg/injection, schedule: Q01DX001 (ip), vehicle: saline 100 % of control | dose: 20.0 mg/kg/injection, schedule: Q04DX003 (ip), vehicle: saline 102 % of control | dose: 40.0 mg/kg/injection, schedule: Q01DX001 (ip), vehicle: saline 111 % of control | dose: 40.0 mg/kg/injection, schedule: Q04DX003 (ip), vehicle: saline 102 % of control | dose: 80.0 mg/kg/injection, schedule: Q01DX001 (ip), vehicle: saline 102 % of control | dose: 80.0 mg/kg/injection, schedule: Q04DX003 (ip), vehicle: saline 94 % of control

O=C(O)C(=O)c1c(O)n(-c2ccccc2)c2ccccc12
inactive: dose: 25.0 mg/kg/injection, schedule: Q01DX001 (ip), vehicle: Klucel (hydroxypropylcellulose) (HPC) 95 % of control | dose: 50.0 mg/kg/injection, schedule: Q01DX001 (ip), vehicle: Klucel (hydroxypropylcellulose) (HPC) 95 % of control | dose: 100.0 mg/kg/injection, schedule: Q01DX001 (ip), vehicle: Klucel (hydroxypropylcellulose) (HPC) 93 % of control and 92 % of control

O=C(CCN1CC1)OCC1CC1
inactive: dose: 2.5 mg/kg/injection, schedule: Q01DX009 (ip), vehicle: Klucel (hydroxypropylcellulose) (HPC) 103 % of control | dose: 5.0 mg/kg/injection, schedule: Q01DX009 (ip), vehicle: Klucel (hydroxypropylcellulose) (HPC) 97 % of control | dose: 10.0 mg/kg/injection, schedule: Q01DX009 (ip), vehicle: Klucel (hydroxypropylcellulose) (HPC) 105 % of control | dose: 20.0 mg/kg/injection, schedule: Q01DX009 (ip), vehicle: Klucel (hydroxypropylcellulose) (HPC) 114 % of control | dose: 20.0 mg/kg/injection, schedule: Q04DX003 (ip), vehicle: Klucel (hydroxypropylcellulose) (HPC) 98 % of control | dose: 40.0 mg/kg/injection, schedule: Q04DX003 (ip), vehicle: Klucel (hydroxypropylcellulose) (HPC) 101 % of control | dose: 80.0 mg/kg/injection, schedule: Q04DX003 (ip), vehicle: Klucel (hydroxypropylcellulose) (HPC) 97 % of control

O=S(=O)(c1ccccc1)C1CCCC1Cl (stereo unspecified)
inactive: [10] 104 % of control | [11] 96 % of control | [13] 100 % of control

O=C(Nc1ccc(S(=O)(=O)NC2CCCCC2)cc1)OC1CCCCC1
inactive: [10] 92 % of control | [11] 90 % of control | [13] 94 % of control

O=C(O)c1c(F)cccc1F
inactive: [14] 91 % of control | [15] 91 % of control | [3] 95 % of control | dose: 100.0 mg/kg/injection, schedule: Q04DX003 (ip), vehicle: saline with Tween-80 88 % of control | [6] 88 % of control

CCCCCCCCCC[P+](=O)CCCCCCCCCC
inactive: [14] 92 % of control | [15] 89 % of control | dose: 200.0 mg/kg/injection, schedule: Q04DX003 (ip), vehicle: saline with Tween-80 89 % of control | dose: 400.0 mg/kg/injection, schedule: Q04DX003 (ip), vehicle: saline with Tween-80 89 % of control

O=c1[nH]c(=O)c2n[nH]c(C3OCC(O)C3O)c2[nH]1 (stereo unspecified)
inactive: dose: 100.0 mg/kg/injection, schedule: Q01DX005 (ip), vehicle: saline 94 % of control | dose: 200.0 mg/kg/injection, schedule: Q01DX005 (ip), vehicle: saline 97 % of control

CC(=O)c1cc(C)ccc1O
inactive: [3] 93 % of control | [5] 92 % of control

ClCCCN(CCCCl)c1ccc(C=Nc2cccc(Cl)c2)c(Cl)c1
inactive: [3] 101 % of control | [5] 102 % of control | [6] 95 % of control

CC(=O)Nc1c(Cl)c(Cl)c2c(c1Cl)C(O)c1cc(Cl)ccc1-2 (stereo unspecified)
inactive: [7] 103 % of control | [8] 97 % of control | [9] 114 % of control

Cc1ccc(S(=O)(=O)/N=S(/C)c2ccccc2)cc1 (stereo unspecified)
inactive: dose: 100.0 mg/kg/injection, schedule: Q01DX009 (ip), vehicle: saline sonified 95 % of control | dose: 100.0 mg/kg/injection, schedule: Q04DX003 (ip), vehicle: saline sonified 94 % of control | dose: 200.0 mg/kg/injection, schedule: Q01DX009 (ip), vehicle: saline sonified 108 % of control | dose: 200.0 mg/kg/injection, schedule: Q04DX003 (ip), vehicle: saline sonified 106 % of control | dose: 400.0 mg/kg/injection, schedule: Q01DX009 (ip), vehicle: saline sonified 97 % of control | dose: 400.0 mg/kg/injection, schedule: Q04DX003 (ip), vehicle: saline sonified 103 % of control
